Results published in patent US20030113330A1, “Methods for treating pulmonary fibrosis” (priority 1999, published 2003).
Like-named read-outs stand apart in the source and are kept apart here.

Experiments:
primary rat AEC [1] = experiment: Fas ligand-induced apoptosis of primary rat alveolar epithelial cells; format: cell-based; conditions: captopril, lisinopril 500 ng/ml; caspase inhibitors 60 uM
Protocol: Lung Cell Isolation and Detection of Apoptosis In Vitro. Primary alveolar epithelial cells (AEC) were isolated from adult male Wistar rats as described above. The primary cells were studied at day two of culture, a time at which they are type II cell-like by accepted morphologic and biochemical criteria, see Paine et al., Am. J. Physiol. […] All cells were seeded in 24-well or 6-well chambers, and all experiments were conducted at subconfluent densities of 80-90% in serum-free Ham's F12 medium. Test reagents were diluted with Ham's F12 medium and were applied for 20 hours at 37° C. in a 5% CO2 incubator.
Detection of apoptotic cells with propidium iodide (PI) was conducted as described above, following digestion of ethanol-fixed cells with DNAse-free RNAse in PBS containing 5 ug/ml PI.
Expression of FAS by alveolar epithelial cells is observed during bleomycin-induced fibrogenesis in mice. See Hagimoto, et al., Am. J. Respir. Cell Mol. Biol. 16:91-101 (1997). […] Apoptosis was detected by quantitation of fragmented nuclei (see above).
Cell Culture and Detection of Apoptosis. The human lung adenocarcinoma cell line A549 was obtained from American Type Culture Collection and cultured in Ham's F12 medium supplemented with 10% fetal bovine serum (FBS). Primary alveolar epithelial cells were isolated from adult male Wistar rats as described earlier (Uhal, B. D., I. Joshi, A. True, S. Mundle, A. Raza, A. Pardo and M. Selman. Fibroblasts isolated after fibrotic lung injury induce apoptosis of alveolar epithelial cells in vitro. Am. J. Physiol. 269:L819-L828, 1995); Wang, R., A. Zagariya, 0. Ibarra-Sunga, C. […] Am. J. Physiol. 276:L885-L889 (1999)). […] All cells were seeded in 24-well or 6-well chambers, and all experiments were conducted at subconfluent densities of 80-90% in serum-free Ham's F12 medium. Test reagents were diluted with serum-free Ham's F12 medium and were applied under serum-free conditions for 20 hours at 37C. in a 5% CO2 incubator. Detection of apoptotic cells with propidium iodide (PI) was conducted as described above Am. J. Physiol. 275:L1013-1017 (1998); Uhal et al., following digestion of ethanol-fixed cells with DNAse-free RNAse in PBS containing 5 μg/ml PI. In all assays, detached cells were retained by centrifugation of the culture vessels during fixation with 70% ethanol, or by retention of culture media and recovery by centrifugation before assay.
Apoptosis was detected by nuclear fragmentation as described above.

primary rat AEC [2] = experiment: Angiotensin II-induced apoptosis in primary rat AEC (nuclear fragmentation, PI); format: cell-based; conditions: ANGII 5.0 uM; saralasin 50 ug/ml, lisinopril 500 ng/ml
Description: Cell Culture. The human lung adenocarcinoma cell line A549 was obtained from American Type Culture Collection and cultured in Ham's F12 medium supplemented with 10% fetal bovine serum (FBS). Primary alveolar epithelial cells were isolated from adult male Wistar rats as described in Uhal et al., Am. J. Physiol. Suppl. (Oct.) 261:110-117 (1991) and Uhal et al., Am. J. Physiol. 269:L819-L828 (1995). The primary cells were studied at day two of culture, a time at which they are type II cell-like by accepted morphologic and biochemical criteria, see Uhal, Am. J. Physiol. 272:L1031-L1045 (1997). […] J. Physiol. Suppl. (October) 261:110-117 (1991). All cells were seeded in 24-well or 6-well chambers, and all experiments were conducted at subconfluent densities of 80-90% in serum-free Ham's F12 medium. Test reagents were diluted with Ham's F12 medium and were applied for 20 h at 37° C. in a 5% CO2 incubator.
Detection of Apoptosis. Detection of apoptotic cells with propidium iodide (PI) was conducted as described in Uhal, et al., Am. J. Physiol. 275:L1013-1017 (1998) following digestion of ethanol-fixed cells with DNAse-free RNAse in PBS containing 5 ug/ml PI. Assay of Annexin V binding by flow cytometry was performed essentially as described for human lung fibroblasts in Uhal, et al., Am. J. Physiol. 275:L998-L1005 (1998) after trypsinization of cells from culture vessels. Assay of Caspase-3 activity was performed on viable suspension cultures as reported in Uhal, et al., Am. J. Physiol. 275:L1013-1017 (1998). In all assays, detached cells were retained by centrifugation of the culture vessels during fixation with 70% ethanol, or by retention of culture media and recovery by centrifugation before assay.
(§1) For microscopy, cells were cultured on glass cover slips, incubated with test reagents and fixed with 70% ethanol. The fixed cells were immunolabeled overnight at 4° C. with monoclonal antibodies to cytokeratins 7 and 19 (Chemicon International, Temecula, Calif.), and then for one hour at 37° C. with anti-mouse IgG-rhodamine and DNAse-free RNAse (Boehringer Mannheim, Indianapolis, Ind.) The cover slips were then rinsed in distilled water three times and mounted under Fluoromount Solution (Southern Biotechnology Associates, Birmingham, Ala.) containing 5 ug/ml propidium iodide. Photomicroscopy was performed as described in Uhal, et al., Am. J. Physiol. 275:L1013-1017 (1998).
Apoptosis in alveolar epithelial cells was quantitated by fluorescence detection of chromatin condensation and nuclear fragmentation in alcohol-fixed cells stained with propidium iodide. See Uhal, et al., Am. J. Physiol. 275:L1013-1017 (1998). […] After 20 h, the culture vessel was centrifuged to retain detached cells and labeled with anticytokeratin antibodies and propidium iodide. […] Double labeling with PI and monoclonal antibodies to cytokeratins 7 and 19 identified cells with both apoptotic nuclear morphology and positive anticytokeratin immunoreactivity.

A549 cells [3] = tested on: A549 cells
Protocol: (§2) The human lung adenocarcinoma cell line A549 (ATCC) was cultured in Ham's F12 medium supplemented with 10% fetal bovine serum (FBS). Primary alveolar epithelial cells were isolated from adult male Wistar rats. The primary cells were studied at day two of culture, a time at which they are type II cell-like by accepted morphologic and biochemical criteria. […] All cells were seeded in 24-well or 6-well chambers, and all experiments were conducted at subconfluent densities of 80-90% in serum-free Ham's F12 medium. Test reagents were diluted with Ham's F12 medium and were applied for 20 hours at 37C. in a 5% CO2 incubator.
(§3) Apoptotic cells were detected using propidium iodide (PI) following digestion of ethanol-fixed cells with DNAse-free RNAse in PBS containing 5 ug/ml PI. […] In replicate culture vessels, necrosis was detected as the loss of exclusion of PI after application of the vital dye directly to the cell culture medium at 5 ug/ml final concentration. Red fluorescent (PI-POSITIVE) cells (>570 nm) were scored over the subsequent hour as a percentage of the total cells in any given field. A minimum of 4 separate fields were scored in each of three separate culture vessels per experiment condition; all experiments were performed at least twice and the data were compiled. Although all necrotic cells are PI-positive, some apoptotic cells may also take up the dye but these comprise a minor fraction of the total dead cell population.
(§4) In all assays, detached cells were retained by centrifugation of the culture vessel at 300×g for 10 minutes with a centrifuge rotor designed for culture plates. For detection of necrosis (dye exclusion of PI), the PI was added directly to the cell culture medium immediately before centrifugation of the culture vessel. For detection of apoptosis, ethanol was added directly to the cell culture medium to a final concentration of 70% immediately before the centrifugation. Afterward, the ethanol was carefully removed and the total cell population (attached plus sedimented detached cells) were stained with PI as described above.

primary rat AEC [4] = tested on: primary rat AEC
Protocol: as §2, §3, §4

primary rat AECs = experiment: TNF-α-induced apoptosis of primary rat AECs; format: cell-based; conditions: purified TNF-α
human A549 cells = format: cell-based; conditions: A549, 20 h
Protocol: (§5) The human lung adenocarcinoma cell line A549 (ATCC) was cultured in Ham's F12 medium supplemented with 10% fetal bovine serum (FBS). Primary alveolar epithelial cells were isolated from adult male Wistar rats. The primary cells were studied at day two of culture, a time at which they are type II cell-like by accepted morphologic and biochemical criteria. All primary cell preparations were of better than 90% purity assessed by acridine orange staining. All cells were seeded in 24-well or 6-well chambers, and all experiments were conducted at subconfluent densities of 80-90% in serum-free Ham's F12 medium. Test reagents were diluted with Ham's F12 medium and were applied for 20 hours at 37C. in a 5% CO2 incubator.
Apoptotic cells were detected using propidium iodide (PI) following digestion of ethanol-fixed cells with DNAse-free RNAse in PBS containing 5 ug/ml PI. […] In replicate culture vessels, necrosis was detected as the loss of exclusion of PI after application of the vital dye directly to the cell culture medium at 5 ug/ml final concentration. Red fluorescent (PI-POSITIVE) cells (>570 nm) were scored over the subsequent hour as a percentage of the total cells in any given field. A minimum of 4 separate fields were scored in each of three separate culture vessels per experiment condition; all experiments were performed at least twice and the data were compiled. […]

[5] = tested on: primary cultures of rat AEC; format: cell-based; conditions: primary rat AEC, 20 h
Protocol: as §5

A549 cells [6] = experiment: Amiodarone-induced net cell loss in A549 cultures; format: cell-based, human; conditions: 20 hours exposure
Protocol: (§6) Primary alveolar epithelial cells were isolated from adult male Wistar rats. The primary cells were studied at day two of culture, a time at which they are type II cell-like by accepted morphologic and biochemical criteria. All primary cell preparations were of better than 90% purity assessed by acridine orange staining. All cells were seeded in 24-well or 6-well chambers, and all experiments were conducted at subconfluent densities of 80-90% in serum-free Ham's F12 medium. Test reagents were diluted with Ham's F12 medium and were applied for 20 hours at 37C. in a 5% CO2 incubator.
(§7) Importantly, unattached cells were recovered and included in the analyses, and thus the data represent true loss of cells rather than simple detachment from the substratum.

primary rat AEC [7] = experiment: Amiodarone-induced net cell loss in primary rat AEC cultures; format: cell-based; conditions: 20 hours exposure
Protocol: as §6, §7

[8] = AIPT; cited from earlier work
primary rat AEC [9] = experiment: Angiotensinogen-induced apoptosis in primary rat AEC; format: cell-based; conditions: 5 uM
Protocol: Cell Culture. […] J. Physiol. Suppl. […] J. Physiol. […] J. Physiol. […] J. Physiol. Suppl.
Detection of Apoptosis. […] J. Physiol. […] Assay of Annexin V binding by flow cytometry was performed essentially as described for human lung fibroblasts in Uhal, et al., Am. J. Physiol. […] Assay of Caspase-3 activity was performed on viable suspension cultures as reported in Uhal, et al., Am. J. Physiol.
as §1, with “Physiol.” for “Physiol. 275:L1013-1017 (1998).”

A549 cell line = experiment: Angiotensinogen-induced apoptosis in A549 cells; format: cell-based, human
Protocol: Cell Culture. […] J. Physiol. Suppl. (Oct.) 261:110-117 (1991) and Uhal et al., Am. J. Physiol. 269:L819-L828 (1995). […] J. Physiol. 272:L1031-L1045 (1997). […] J. Physiol. Suppl. (October) 261:110-117 (1991).
Detection of Apoptosis. […] J. Physiol. […] Assay of Annexin V binding by flow cytometry was performed essentially as described for human lung fibroblasts in Uhal, et al., Am. J. Physiol. 275:L998-L1005 (1998) after trypsinization of cells from culture vessels. Assay of Caspase-3 activity was performed on viable suspension cultures as reported in Uhal, et al., Am. J. Physiol. 275:L1013-1017 (1998).
as §1

## CCCCc1nc(Cl)c(CO)n1Cc1ccc(-c2ccccc2-c2nn[nH]n2)cc1 [Losartan, losartan]
Primary rat AEC [1]
  inhibition of Fas ligand-induced apoptosis of primary rat AEC (words): abrogated
Primary rat AEC [2]
  inhibition of ANGII-induced apoptosis of primary rat AEC: abrogated
A549 cells [3]; captopril 500 ng/ml, saralasin 50 ug/ml, Losartan 5 pg/ml
  inhibition of amiodarone-induced apoptosis: completely blocked
Primary rat AEC [4]; captopril 500 ng/ml, saralasin 50 ug/ml, Losartan 5 pg/ml, amiodarone 2.5 ug/ml for chelerythrine, orthovanadate
  inhibition of amiodarone-induced apoptosis: completely blocked
Primary rat AECs
  inhibition of TNF-α-induced apoptosis: abrogated

## CCCCc1oc2ccccc2c1C(=O)c1cc(I)c(OCCN(CC)CC)c(I)c1 [amiodarone]
Human A549 cells
  concentration at which necrosis / significant cell death begins: 10000 ng/mL
[5]
  concentration at which significant cell death / toxicity begins: 2500 ng/mL
[5]; listed as AM
  concentration at which significant cell death / toxicity begins: 1000 ng/mL
A549 cells [3]; 10 ug/ml AM, 5 ug/ml DES
  maximum increase in apoptotic cells: 10 fold
A549 cells [3]; A549
  concentration at which apoptosis begins: 10000 ng/mL
Primary rat AEC [4]; 15 ug/ml AM, 5 ug/ml DES
  induction of apoptosis: 16 fold
Primary rat AEC [4]; primary AEC
  concentration at which significant apoptosis begins: 2500 ng/mL
A549 cells [6]
  effect on total cell number: significantly decreased
Primary rat AEC [7]
  effect on total cell number: significantly decreased
[8]
  estimated mortality of affected patients: 5 to 10%

B1: angiotensinogen: purified angiotensinogen, serum globulin precursor of angiotensin I (protein, UniProt P01019 25-476, looked up)
Angiotensinogen: DRVYIHPFHLVIHNESTCEQLAKANAGKPKDPTFIPAPIQAKTSPVDEKALQDQLVLVAAKLDTEDKLRAAMVGMLANFLGFRIYGMHSELWGVVHGATVLSPTAVFGTLASLYLGALDHTADRLQAILGVPWKDKNCTSRLDAHKVLSALQAVQGLLVAQGRADSQAQLLLSTVVGVFTAPGLHLKQPFVQGLALYTPVVLPRSLDFTELDVAAEKIDRFMQAVTGWKTGCSLMGASVDSTLAFNTYVHFQGKMKGFSLLAEPQEFWVDNSTSVSVPMLSGMGTFQHWSDIQDNFSVTQVPFTESACLLLIQPHYASDLDKVEGLTFQQNSLNWMKKLSPRTIHLTMPQLVLQGSYDLQDLLAQAELPAILHTELNLQKLSNDRIRVGEVLNSIFFELEADEREPTESTQQLNKPEVLEVTLNRPFLFAVYDQSATALHFLGRVANPLSTA
Primary rat AEC [9]
  induction of apoptosis by angiotensinogen: induced apoptosis with the same potency as did ANGII
A549 cell line
  induction of apoptosis by angiotensinogen: not capable of inducing apoptosis
